Data: the kinase profiling compilation of Christmann-Franck et al. (2016)

Experiments:
Experiment in all cases: KINOMEscan competition binding
Settings in all cases: compound 10.0 µM; call rule not given here
ACVR1B (human) = ACVR1B (human) (UniProt P36896)
CSK (human) = CSK (human) (UniProt P41240)
DMPK (human) = DMPK (human) (UniProt Q09013)
FGFR1 (human) = FGFR1 (human) (UniProt P11362)
PAK7 (human) = PAK7 (human) (UniProt Q9P286)
MAP3K4 (human) = MAP3K4 (human) (UniProt Q9Y6R4)
PTK6 (human) = PTK6 (human) (UniProt Q13882)
CLK4 (human) = CLK4 (human) (UniProt Q9HAZ1)
TXK (human) = TXK (human) (UniProt P42681)
RIPK2 (human) = RIPK2 (human) (UniProt O43353)
EPHB3 (human) = EPHB3 (human) (UniProt P54753)
PAK3 (human) = PAK3 (human) (UniProt O75914)
RPS6KA1 KD1 (human) = RPS6KA1 KD1 (human) (UniProt Q15418)
PTK2B (human) = PTK2B (human) (UniProt Q14289)
AKT1 (human) = AKT1 (human) (UniProt P31749)
Chain of AKT1 (human) (P31749 whole entry, looked up): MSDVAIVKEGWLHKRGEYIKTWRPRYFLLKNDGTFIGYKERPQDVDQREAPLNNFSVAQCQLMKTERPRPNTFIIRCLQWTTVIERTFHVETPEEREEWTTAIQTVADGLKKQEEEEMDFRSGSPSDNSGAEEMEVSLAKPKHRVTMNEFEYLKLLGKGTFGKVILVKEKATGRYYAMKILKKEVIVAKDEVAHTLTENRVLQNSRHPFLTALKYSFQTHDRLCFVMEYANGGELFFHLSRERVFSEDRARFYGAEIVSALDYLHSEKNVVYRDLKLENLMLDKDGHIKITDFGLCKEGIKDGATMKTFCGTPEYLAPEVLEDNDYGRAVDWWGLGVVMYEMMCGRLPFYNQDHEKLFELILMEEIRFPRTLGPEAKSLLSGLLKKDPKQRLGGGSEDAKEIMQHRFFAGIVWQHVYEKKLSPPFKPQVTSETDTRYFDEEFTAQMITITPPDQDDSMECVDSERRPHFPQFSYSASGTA

MUSK (human) = MUSK (human) (UniProt O15146)
PAK6 (human) = PAK6 (human) (UniProt Q9NQU5)
Chain of PAK6 (human) (Q9NQU5 whole entry, looked up): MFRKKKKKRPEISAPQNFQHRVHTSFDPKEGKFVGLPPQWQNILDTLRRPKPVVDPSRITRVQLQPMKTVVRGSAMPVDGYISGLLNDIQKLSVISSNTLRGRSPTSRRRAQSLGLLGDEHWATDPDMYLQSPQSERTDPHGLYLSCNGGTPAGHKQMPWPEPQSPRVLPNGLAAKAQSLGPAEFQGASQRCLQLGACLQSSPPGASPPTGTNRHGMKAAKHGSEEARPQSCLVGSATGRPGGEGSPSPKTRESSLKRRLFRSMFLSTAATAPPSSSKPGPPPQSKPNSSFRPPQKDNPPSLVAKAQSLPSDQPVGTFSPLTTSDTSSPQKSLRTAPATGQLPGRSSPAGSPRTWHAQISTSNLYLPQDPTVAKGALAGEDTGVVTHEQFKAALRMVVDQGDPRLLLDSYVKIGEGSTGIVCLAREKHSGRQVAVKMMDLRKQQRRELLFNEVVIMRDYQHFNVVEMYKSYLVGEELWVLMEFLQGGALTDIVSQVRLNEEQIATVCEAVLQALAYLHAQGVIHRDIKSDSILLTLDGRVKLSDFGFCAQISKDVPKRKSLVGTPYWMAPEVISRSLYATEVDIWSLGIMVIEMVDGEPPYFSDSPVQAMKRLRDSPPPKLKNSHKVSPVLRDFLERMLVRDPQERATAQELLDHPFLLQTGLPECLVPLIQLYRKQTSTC

PRKCA (human) = PRKCA (human) (UniProt P17252)
PKMYT1 (human) = PKMYT1 (human) (UniProt Q99640)
Chain of PKMYT1 (human) (Q99640 whole entry, looked up): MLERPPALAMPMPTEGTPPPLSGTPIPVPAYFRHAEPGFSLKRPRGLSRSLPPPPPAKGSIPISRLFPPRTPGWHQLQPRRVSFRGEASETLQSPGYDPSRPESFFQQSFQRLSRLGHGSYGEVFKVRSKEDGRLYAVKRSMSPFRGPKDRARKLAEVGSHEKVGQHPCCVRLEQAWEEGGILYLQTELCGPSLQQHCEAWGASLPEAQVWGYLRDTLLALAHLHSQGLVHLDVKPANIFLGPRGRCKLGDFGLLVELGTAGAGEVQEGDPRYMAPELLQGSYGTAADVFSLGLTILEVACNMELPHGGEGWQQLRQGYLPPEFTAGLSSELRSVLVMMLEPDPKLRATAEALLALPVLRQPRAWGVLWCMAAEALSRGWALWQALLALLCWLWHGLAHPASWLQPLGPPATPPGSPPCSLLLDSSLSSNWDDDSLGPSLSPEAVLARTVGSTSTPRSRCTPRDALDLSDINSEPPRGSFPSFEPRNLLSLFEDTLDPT

STK32C (human) = STK32C (human) (UniProt Q86UX6)
PAK1 (human) = PAK1 (human) (UniProt Q13153)
Chain of PAK1 (human) (Q13153 whole entry, looked up): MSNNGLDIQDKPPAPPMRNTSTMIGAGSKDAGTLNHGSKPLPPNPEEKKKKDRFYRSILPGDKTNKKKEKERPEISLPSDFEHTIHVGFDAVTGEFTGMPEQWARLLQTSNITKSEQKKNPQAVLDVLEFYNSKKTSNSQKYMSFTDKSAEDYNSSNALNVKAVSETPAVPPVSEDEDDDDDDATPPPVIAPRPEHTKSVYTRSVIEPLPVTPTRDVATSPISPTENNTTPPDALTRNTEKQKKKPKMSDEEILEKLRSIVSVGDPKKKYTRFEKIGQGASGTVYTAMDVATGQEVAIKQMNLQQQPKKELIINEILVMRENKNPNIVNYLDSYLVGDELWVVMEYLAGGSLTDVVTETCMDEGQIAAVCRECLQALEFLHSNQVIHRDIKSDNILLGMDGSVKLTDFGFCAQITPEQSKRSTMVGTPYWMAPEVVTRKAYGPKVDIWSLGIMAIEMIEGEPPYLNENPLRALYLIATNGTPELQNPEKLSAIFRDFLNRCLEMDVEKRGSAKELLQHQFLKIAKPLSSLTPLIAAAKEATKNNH

PHKG1 (human) = PHKG1 (human) (UniProt Q16816)
CAMK2B (human) = CAMK2B (human) (UniProt Q13554)
CLK1 (human) = CLK1 (human) (UniProt P49759)
PRKCH (human) = PRKCH (human) (UniProt P24723)
Chain of PRKCH (human) (P24723 whole entry, looked up): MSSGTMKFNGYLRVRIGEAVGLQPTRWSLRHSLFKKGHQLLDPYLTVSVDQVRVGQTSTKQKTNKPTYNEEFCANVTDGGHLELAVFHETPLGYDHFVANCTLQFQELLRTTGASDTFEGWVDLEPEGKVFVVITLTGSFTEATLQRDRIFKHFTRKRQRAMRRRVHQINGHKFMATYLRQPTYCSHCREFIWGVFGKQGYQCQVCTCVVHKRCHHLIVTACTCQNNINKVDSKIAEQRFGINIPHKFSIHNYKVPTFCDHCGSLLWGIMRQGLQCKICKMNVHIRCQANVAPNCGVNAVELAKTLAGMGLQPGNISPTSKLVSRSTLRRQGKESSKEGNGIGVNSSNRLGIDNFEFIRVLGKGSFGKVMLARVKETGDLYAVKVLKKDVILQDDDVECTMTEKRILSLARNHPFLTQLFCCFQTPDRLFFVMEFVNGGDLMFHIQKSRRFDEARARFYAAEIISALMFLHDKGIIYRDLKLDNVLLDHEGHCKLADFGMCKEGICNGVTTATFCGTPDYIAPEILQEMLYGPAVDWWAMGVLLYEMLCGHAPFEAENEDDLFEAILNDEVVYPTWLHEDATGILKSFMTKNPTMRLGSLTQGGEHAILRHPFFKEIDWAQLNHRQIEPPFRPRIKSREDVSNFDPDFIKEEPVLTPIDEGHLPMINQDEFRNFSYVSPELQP

NEK9 (human) = NEK9 (human) (UniProt Q8TD19)
PLK3 (human) = PLK3 (human) (UniProt Q9H4B4)
EPHA7 (human) = EPHA7 (human) (UniProt Q15375)
CLK3 (human) = CLK3 (human) (UniProt P49761)
PRKG1 (human) = PRKG1 (human) (UniProt Q13976)
MAPK9 (human) = MAPK9 (human) (UniProt P45984)
PAK2 (human) = PAK2 (human) (UniProt Q13177)
AKT2 (human) = AKT2 (human) (UniProt P31751)
AKT3 (human) = AKT3 (human) (UniProt Q9Y243)
CAMKK2 (human) = CAMKK2 (human) (UniProt Q96RR4)
FGFR2 (human) = FGFR2 (human) (UniProt P21802)
ADCK3 (human) = ADCK3 (human) (UniProt Q8NI60)
FGFR4 (human) = FGFR4 (human) (UniProt P22455)
Chain of FGFR4 (human) (P22455 whole entry, looked up): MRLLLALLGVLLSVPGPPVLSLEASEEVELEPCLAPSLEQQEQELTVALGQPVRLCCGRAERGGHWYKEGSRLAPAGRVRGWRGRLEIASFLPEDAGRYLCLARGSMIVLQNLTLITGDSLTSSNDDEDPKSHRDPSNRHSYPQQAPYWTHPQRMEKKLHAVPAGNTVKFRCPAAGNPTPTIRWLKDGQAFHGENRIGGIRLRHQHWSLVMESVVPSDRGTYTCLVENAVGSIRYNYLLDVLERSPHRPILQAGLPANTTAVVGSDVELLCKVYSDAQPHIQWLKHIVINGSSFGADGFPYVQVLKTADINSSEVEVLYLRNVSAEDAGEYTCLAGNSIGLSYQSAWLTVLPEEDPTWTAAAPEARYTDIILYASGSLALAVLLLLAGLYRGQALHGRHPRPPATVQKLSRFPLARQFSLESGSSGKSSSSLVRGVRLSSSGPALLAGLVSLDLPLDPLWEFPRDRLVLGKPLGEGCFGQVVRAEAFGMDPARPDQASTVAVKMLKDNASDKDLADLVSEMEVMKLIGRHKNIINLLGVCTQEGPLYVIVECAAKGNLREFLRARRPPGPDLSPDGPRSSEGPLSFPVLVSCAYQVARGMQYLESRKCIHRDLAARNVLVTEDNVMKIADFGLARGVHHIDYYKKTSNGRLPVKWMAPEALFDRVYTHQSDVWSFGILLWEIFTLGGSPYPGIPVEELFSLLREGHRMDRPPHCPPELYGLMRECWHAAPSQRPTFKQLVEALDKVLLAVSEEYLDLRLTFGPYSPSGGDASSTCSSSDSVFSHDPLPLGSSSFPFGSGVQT

STK25 (human) = STK25 (human) (UniProt O00506)
Chain of STK25 (human) (O00506 whole entry, looked up): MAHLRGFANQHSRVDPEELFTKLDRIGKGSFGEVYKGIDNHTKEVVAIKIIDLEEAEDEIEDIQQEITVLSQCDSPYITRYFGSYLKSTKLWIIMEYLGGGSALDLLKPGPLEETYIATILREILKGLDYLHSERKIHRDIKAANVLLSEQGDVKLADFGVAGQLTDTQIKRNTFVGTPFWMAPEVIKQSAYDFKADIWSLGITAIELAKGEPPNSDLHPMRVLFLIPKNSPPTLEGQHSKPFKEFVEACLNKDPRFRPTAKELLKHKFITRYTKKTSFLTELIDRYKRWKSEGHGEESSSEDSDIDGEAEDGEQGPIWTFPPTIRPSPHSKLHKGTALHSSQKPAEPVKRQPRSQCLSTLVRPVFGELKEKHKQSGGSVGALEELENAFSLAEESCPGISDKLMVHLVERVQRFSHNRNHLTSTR

FGFR3 (human) = FGFR3 (human) (UniProt P22607)
EGFR (human) = EGFR (human) (UniProt P00533)

In the case of `CCS(=O)(=O)Nc1ccc2c(c1)[C@H](/C(=N/c1ccc(CN3CCCCC3)cc1)c1ccccc1)C(=O)N2`, the kinase still bound, per cent of control (ACVR1B (human)) was 2%, the kinase still bound, per cent of control (CSK (human)) was 0% and the “kinase still bound, per cent of control” value (DMPK (human)) was “no effect (inactive)”. It also gave a kinase still bound, per cent of control (FGFR1 (human)) of 0%, a kinase still bound, per cent of control (PAK7 (human)) of 0% and a kinase still bound, per cent of control (MAP3K4 (human)) of 28.3%. For the same molecule, the kinase still bound, per cent of control (PTK6 (human)) was 1.8%, the kinase still bound, per cent of control (CLK4 (human)) was 0% and the kinase still bound, per cent of control (TXK (human)) was 0%. The kinase still bound, per cent of control (RIPK2 (human)) was 6.9%, the kinase still bound, per cent of control (EPHB3 (human)) was 7.2% and the kinase still bound, per cent of control (PAK3 (human)) was 0%. The kinase still bound, per cent of control (RPS6KA1 KD1 (human)) was 0%, the kinase still bound, per cent of control (PTK2B (human)) was 0% and the “kinase still bound, per cent of control” value (AKT1 (human)) was “no effect (inactive)”. For the same molecule, the kinase still bound, per cent of control (MUSK (human)) was 0%, the kinase still bound, per cent of control (PAK6 (human)) was 2.6% and the kinase still bound, per cent of control (PRKCA (human)) was 2.5%. The “kinase still bound, per cent of control” value (PKMYT1 (human)) was “no effect (inactive)”, the “kinase still bound, per cent of control” value (STK32C (human)) was “no effect (inactive)” and the kinase still bound, per cent of control (PAK1 (human)) was 4.9%. It also gave a kinase still bound, per cent of control (PHKG1 (human)) of 0.1%, a kinase still bound, per cent of control (CAMK2B (human)) of 4.6% and a kinase still bound, per cent of control (CLK1 (human)) of 0%. For the same molecule, the kinase still bound, per cent of control (PRKCH (human)) was 19.2%, the “kinase still bound, per cent of control” value (NEK9 (human)) was “no effect (inactive)” and the “kinase still bound, per cent of control” value (PLK3 (human)) was “no effect (inactive)”. It also gave a kinase still bound, per cent of control (EPHA7 (human)) of 0%, a kinase still bound, per cent of control (CLK3 (human)) of 2.3% and a kinase still bound, per cent of control (PRKG1 (human)) of 0.15%. For the same molecule, the kinase still bound, per cent of control (MAPK9 (human)) was 0.1%, the “kinase still bound, per cent of control” value (PAK2 (human)) was “no effect (inactive)” and the “kinase still bound, per cent of control” value (AKT2 (human)) was “no effect (inactive)”. The “kinase still bound, per cent of control” value (AKT3 (human)) was “no effect (inactive)”, the kinase still bound, per cent of control (CAMKK2 (human)) was 0.1% and the kinase still bound, per cent of control (FGFR2 (human)) was 0.1%. The kinase still bound, per cent of control (ADCK3 (human)) was 27.2%, the kinase still bound, per cent of control (FGFR4 (human)) was 0% and the kinase still bound, per cent of control (STK25 (human)) was 0.4%. It also gave a kinase still bound, per cent of control (FGFR3 (human)) of 0% and a kinase still bound, per cent of control (EGFR (human)) of 21.2%.
With `Cc1ccc(NC(=O)c2cccc(N3CCCCC3)c2)cc1-c1ccc(C(=O)NCC2CC2)cc1` the “kinase still bound, per cent of control” value (ACVR1B (human)) was “no effect (inactive)”, the “kinase still bound, per cent of control” value (CSK (human)) was “no effect (inactive)” and the “kinase still bound, per cent of control” value (DMPK (human)) was “no effect (inactive)”. The “kinase still bound, per cent of control” value (FGFR1 (human)) was “no effect (inactive)”, the “kinase still bound, per cent of control” value (PAK7 (human)) was “no effect (inactive)” and the “kinase still bound, per cent of control” value (MAP3K4 (human)) was “no effect (inactive)”. The “kinase still bound, per cent of control” value (PTK6 (human)) was “no effect (inactive)”, the “kinase still bound, per cent of control” value (CLK4 (human)) was “no effect (inactive)” and the “kinase still bound, per cent of control” value (TXK (human)) was “no effect (inactive)”. The “kinase still bound, per cent of control” value (RIPK2 (human)) was “no effect (inactive)”, the “kinase still bound, per cent of control” value (EPHB3 (human)) was “no effect (inactive)” and the “kinase still bound, per cent of control” value (PAK3 (human)) was “no effect (inactive)”. For the same molecule, the “kinase still bound, per cent of control” value (RPS6KA1 KD1 (human)) was “no effect (inactive)”, the “kinase still bound, per cent of control” value (PTK2B (human)) was “no effect (inactive)” and the “kinase still bound, per cent of control” value (AKT1 (human)) was “no effect (inactive)”. For the same molecule, the “kinase still bound, per cent of control” value (MUSK (human)) was “no effect (inactive)”, the “kinase still bound, per cent of control” value (PAK6 (human)) was “no effect (inactive)” and the “kinase still bound, per cent of control” value (PRKCA (human)) was “no effect (inactive)”. For the same molecule, the “kinase still bound, per cent of control” value (PKMYT1 (human)) was “no effect (inactive)”, the “kinase still bound, per cent of control” value (STK32C (human)) was “no effect (inactive)” and the “kinase still bound, per cent of control” value (PAK1 (human)) was “no effect (inactive)”. For the same molecule, the “kinase still bound, per cent of control” value (PHKG1 (human)) was “no effect (inactive)”, the “kinase still bound, per cent of control” value (CAMK2B (human)) was “no effect (inactive)” and the “kinase still bound, per cent of control” value (CLK1 (human)) was “no effect (inactive)”. The “kinase still bound, per cent of control” value (PRKCH (human)) was “no effect (inactive)”, the “kinase still bound, per cent of control” value (NEK9 (human)) was “no effect (inactive)” and the “kinase still bound, per cent of control” value (PLK3 (human)) was “no effect (inactive)”. The “kinase still bound, per cent of control” value (EPHA7 (human)) was “no effect (inactive)”, the “kinase still bound, per cent of control” value (CLK3 (human)) was “no effect (inactive)” and the “kinase still bound, per cent of control” value (PRKG1 (human)) was “no effect (inactive)”. For the same molecule, the “kinase still bound, per cent of control” value (MAPK9 (human)) was “no effect (inactive)”, the “kinase still bound, per cent of control” value (PAK2 (human)) was “no effect (inactive)” and the “kinase still bound, per cent of control” value (AKT2 (human)) was “no effect (inactive)”. For the same molecule, the “kinase still bound, per cent of control” value (AKT3 (human)) was “no effect (inactive)”, the “kinase still bound, per cent of control” value (CAMKK2 (human)) was “no effect (inactive)” and the “kinase still bound, per cent of control” value (FGFR2 (human)) was “no effect (inactive)”. For the same molecule, the “kinase still bound, per cent of control” value (ADCK3 (human)) was “no effect (inactive)”, the “kinase still bound, per cent of control” value (FGFR4 (human)) was “no effect (inactive)” and the “kinase still bound, per cent of control” value (STK25 (human)) was “no effect (inactive)”. The “kinase still bound, per cent of control” value (FGFR3 (human)) was “no effect (inactive)” and the “kinase still bound, per cent of control” value (EGFR (human)) was “no effect (inactive)”.
